# Results published in publication doi:10.1101/2024.08.19.608619, “Discovery of potent SARS-CoV-2 nsp3 macrodomain inhibitors uncovers lack of translation to cellular antiviral response” (bioRxiv, 2024).
# Like-named read-outs stand apart in the source and are kept apart here.
# What was measured:
# SARS-CoV-2 nsp3-mac1 [1] = target: T1, SARS-CoV-2 nsp3-mac1 (Severe acute respiratory syndrome coronavirus 2, UniProt P0DTD1); assay: biochemical; set-up: SARS-CoV-2 nsp3 macrodomain TR-FRET single point, per cent inhibition, n=2
# SARS-CoV-2 nsp3-mac1 [2] = target: T1, SARS-CoV-2 nsp3-mac1; assay: biochemical; assay type: biochemical; details: SARS-CoV-2 nsp3 macrodomain TR-FRET single point
# [3] = read-out: perc_inhibition_mean, batch_name=ASAP-0000399-001
# [4] = read-out: perc_inhibition_mean, batch_name=ASAP-0000343-001
# [5] = read-out: perc_inhibition_mean, batch_name=ASAP-0000329-001
# [6] = read-out: perc_inhibition_mean, batch_name=ASAP-0000200-002
# [7] = read-out: perc_inhibition_mean, batch_name=ASAP-0000387-001
# [8] = read-out: perc_inhibition_mean, batch_name=ASAP-0000319-001
# [9] = read-out: perc_inhibition_mean, batch_name=ASAP-0000448-001
# [10] = read-out: perc_inhibition_mean, batch_name=ASAP-0000328-001
# [11] = read-out: perc_inhibition_mean, batch_name=ASAP-0000429-001
# [12] = read-out: perc_inhibition_mean, batch_name=ASAP-0000395-001
# [13] = read-out: perc_inhibition_mean, batch_name=ASAP-0000330-001
structure (smiles),measurement,setting,value
O=C(N[C@@H]1COCC[C@H]1O)c1cnn2ccc(C3CCN(C(=O)c4ccccc4)CC3)cc12 [ASAP-0000399],inhibition at 49.75 µM,SARS-CoV-2 nsp3-mac1 [1]; [3],-5.01%
same,inhibition at 99.5 µM,SARS-CoV-2 nsp3-mac1 [1]; [3],-4.48%
same,perc_inhibition_mean,SARS-CoV-2 nsp3-mac1 [2]; concentration 49.75 uM,-5.013%
same,perc_inhibition_mean,SARS-CoV-2 nsp3-mac1 [2]; concentration 99.5 uM,-4.477%
Cc1cncc(NCc2csc(-c3ccccn3)n2)c1 [ASAP-0000122],inhibition at 50 µM,"SARS-CoV-2 nsp3-mac1 [1]; read-out: perc_inhibition_mean, batch_name=ASAP-0000122-001",-5.02%
same,perc_inhibition_mean,SARS-CoV-2 nsp3-mac1 [2]; concentration 50.0 uM,-5.024%
O=C1NC[C@@H](C(=O)N(CCC(=O)N2CCNCC2)Cc2cccc(Cl)c2)O1 [ASAP-0000343],inhibition at 49.75 µM,SARS-CoV-2 nsp3-mac1 [1]; [4],0.125%
same,inhibition at 99.5 µM,SARS-CoV-2 nsp3-mac1 [1]; [4],5.24%
same,perc_inhibition_mean,"SARS-CoV-2 nsp3-mac1 [2]; concentration 49.75 uM, n=2",0.125%
same,perc_inhibition_mean,"SARS-CoV-2 nsp3-mac1 [2]; concentration 99.5 uM, n=2",5.241%
Cc1ncc(NCc2ncn(C)c2Cl)cc1C(N)=O [ASAP-0000103],inhibition at 50 µM,"SARS-CoV-2 nsp3-mac1 [1]; read-out: perc_inhibition_mean, batch_name=ASAP-0000103-001",2.41%
same,perc_inhibition_mean,SARS-CoV-2 nsp3-mac1 [2]; concentration 50.0 uM,2.409%
O=C(c1cc(O)ccn1)N1CCC(c2ccn3ncc(C(=O)N4CCCCC4)c3c2)CC1 [ASAP-0000329],inhibition at 49.75 µM,SARS-CoV-2 nsp3-mac1 [1]; [5],17.6%
same,inhibition at 99.5 µM,SARS-CoV-2 nsp3-mac1 [1]; [5],32.2%
same,perc_inhibition_mean,"SARS-CoV-2 nsp3-mac1 [2]; concentration 49.75 uM, n=2",17.623%
same,perc_inhibition_mean,"SARS-CoV-2 nsp3-mac1 [2]; concentration 99.5 uM, n=2",32.165%
Cc1cc(C(F)(F)F)nn1CCNc1ncnc2[nH]ccc12 [ASAP-0000200],inhibition at 50 µM,"SARS-CoV-2 nsp3-mac1 [1]; read-out: perc_inhibition_mean, batch_name=ASAP-0000200-001",4.6%
same,inhibition at 50 µM,SARS-CoV-2 nsp3-mac1 [1]; [6],-3.04%
same,inhibition at 100 µM,SARS-CoV-2 nsp3-mac1 [1]; [6],-2.21%
same,perc_inhibition_mean,SARS-CoV-2 nsp3-mac1 [2]; concentration 50.0 uM,4.602%
same,perc_inhibition_mean,"SARS-CoV-2 nsp3-mac1 [2]; concentration 50.0 uM, n=2",-3.037%
same,perc_inhibition_mean,"SARS-CoV-2 nsp3-mac1 [2]; concentration 100.0 uM, n=2",-2.206%
Cc1cc(C(=O)N2CCC(c3ccn4ncc(C(=O)N5CCCCC5)c4c3)CC2)[nH]n1 [ASAP-0000387],inhibition at 49.75 µM,SARS-CoV-2 nsp3-mac1 [1]; [7],16.6%
same,inhibition at 99.5 µM,SARS-CoV-2 nsp3-mac1 [1]; [7],31.6%
same,perc_inhibition_mean,SARS-CoV-2 nsp3-mac1 [2]; concentration 49.75 uM,16.559%
same,perc_inhibition_mean,SARS-CoV-2 nsp3-mac1 [2]; concentration 99.5 uM,31.572%
c1ccc(-c2n[nH]cc2CNc2cnc3[nH]ncc3c2)cc1 [ASAP-0000059],inhibition at 50 µM,"SARS-CoV-2 nsp3-mac1 [1]; read-out: perc_inhibition_mean, batch_name=ASAP-0000059-001",-2.04%
same,perc_inhibition_mean,SARS-CoV-2 nsp3-mac1 [2]; concentration 50.0 uM,-2.044%
COc1ccccc1CN(C[C@@H]1CCCO1)c1ncnc2[nH]ccc12 [ASAP-0000107],inhibition at 50 µM,"SARS-CoV-2 nsp3-mac1 [1]; read-out: perc_inhibition_mean, batch_name=ASAP-0000107-001",4.74%
same,perc_inhibition_mean,SARS-CoV-2 nsp3-mac1 [2]; concentration 50.0 uM,4.74%
COCc1cc(CC(=O)Nc2ncnc3[nH]cnc23)no1 [ASAP-0000129],inhibition at 50 µM,"SARS-CoV-2 nsp3-mac1 [1]; read-out: perc_inhibition_mean, batch_name=ASAP-0000129-001",2.97%
same,perc_inhibition_mean,SARS-CoV-2 nsp3-mac1 [2]; concentration 50.0 uM,2.968%
Nc1ncc(C(=O)N(CCC(=O)N2CCNCC2)Cc2cccc(Cl)c2)cn1 [ASAP-0000319],inhibition at 49.75 µM,SARS-CoV-2 nsp3-mac1 [1]; [8],-2.76%
same,inhibition at 99.5 µM,SARS-CoV-2 nsp3-mac1 [1]; [8],-1.73%
same,perc_inhibition_mean,"SARS-CoV-2 nsp3-mac1 [2]; concentration 49.75 uM, n=2",-2.76%
same,perc_inhibition_mean,"SARS-CoV-2 nsp3-mac1 [2]; concentration 99.5 uM, n=2",-1.726%
Cn1cc([C@H]2CSCCN2c2ncnc3[nH]ccc23)cn1 [ASAP-0000448],inhibition at 49.75 µM,SARS-CoV-2 nsp3-mac1 [1]; [9],-6.49%
same,inhibition at 99.5 µM,SARS-CoV-2 nsp3-mac1 [1]; [9],-3.46%
same,perc_inhibition_mean,SARS-CoV-2 nsp3-mac1 [2]; concentration 49.75 uM,-6.49%
same,perc_inhibition_mean,SARS-CoV-2 nsp3-mac1 [2]; concentration 99.5 uM,-3.463%
O=C(c1cn2ncccc2n1)N1CCC(c2ccn3ncc(C(=O)N4CCCCC4)c3c2)CC1 [ASAP-0000328],inhibition at 49.75 µM,SARS-CoV-2 nsp3-mac1 [1]; [10],30.7%
same,inhibition at 99.5 µM,SARS-CoV-2 nsp3-mac1 [1]; [10],53.8%
same,perc_inhibition_mean,"SARS-CoV-2 nsp3-mac1 [2]; concentration 49.75 uM, n=2",30.741%
same,perc_inhibition_mean,"SARS-CoV-2 nsp3-mac1 [2]; concentration 99.5 uM, n=2",53.75%
Cc1nc(NC(=O)Cn2cnc3ccccc3c2=O)c2cc[nH]c2n1 [ASAP-0000429],inhibition at 49.75 µM,SARS-CoV-2 nsp3-mac1 [1]; [11],-4.07%
same,inhibition at 99.5 µM,SARS-CoV-2 nsp3-mac1 [1]; [11],-4.89%
same,perc_inhibition_mean,SARS-CoV-2 nsp3-mac1 [2]; concentration 49.75 uM,-4.067%
same,perc_inhibition_mean,SARS-CoV-2 nsp3-mac1 [2]; concentration 99.5 uM,-4.886%
c1ccc2sc(CCNc3ncnc4nc[nH]c34)nc2c1 [ASAP-0000003],inhibition at 50 µM,"SARS-CoV-2 nsp3-mac1 [1]; read-out: perc_inhibition_mean, batch_name=ASAP-0000003-001",-4.21%
same,perc_inhibition_mean,SARS-CoV-2 nsp3-mac1 [2]; concentration 50.0 uM,-4.211%
Cc1[nH]nc(C(=O)N2CCC(c3ccn4ncc(C(=O)N5CCCCC5)c4c3)CC2)c1C [ASAP-0000395],inhibition at 49.75 µM,SARS-CoV-2 nsp3-mac1 [1]; [12],18%
same,inhibition at 99.5 µM,SARS-CoV-2 nsp3-mac1 [1]; [12],33.8%
same,perc_inhibition_mean,SARS-CoV-2 nsp3-mac1 [2]; concentration 49.75 uM,18.038%
same,perc_inhibition_mean,SARS-CoV-2 nsp3-mac1 [2]; concentration 99.5 uM,33.801%
Cc1n[nH]c(C)c1C(=O)N1CCC(c2ccn3ncc(C(=O)N4CCCCC4)c3c2)CC1 [ASAP-0000330],inhibition at 49.75 µM,SARS-CoV-2 nsp3-mac1 [1]; [13],10.8%
same,inhibition at 99.5 µM,SARS-CoV-2 nsp3-mac1 [1]; [13],23.3%
same,perc_inhibition_mean,"SARS-CoV-2 nsp3-mac1 [2]; concentration 49.75 uM, n=2",10.806%
same,perc_inhibition_mean,"SARS-CoV-2 nsp3-mac1 [2]; concentration 99.5 uM, n=2",23.296%
CN(c1ncnc2[nH]ccc12)[C@H]1CCN(S(C)(=O)=O)C1 [ASAP-0000112],inhibition at 50 µM,"SARS-CoV-2 nsp3-mac1 [1]; read-out: perc_inhibition_mean, batch_name=ASAP-0000112-001",-0.371%
same,perc_inhibition_mean,SARS-CoV-2 nsp3-mac1 [2]; concentration 50.0 uM,-0.371%
COc1cc(OC)cc(C(=O)N(CCC(=O)N2CCNCC2)Cc2cccc(Cl)c2)c1 [ASAP-0000111],inhibition at 50 µM,"SARS-CoV-2 nsp3-mac1 [1]; read-out: perc_inhibition_mean, batch_name=ASAP-0000111-001",-4.53%
same,perc_inhibition_mean,SARS-CoV-2 nsp3-mac1 [2]; concentration 50.0 uM,-4.529%
